Source: patent US20050232896A1, “Cd137 as a proliferation factor for hematopoietic stem cells” (priority 2001, published 2005)

What was measured:
[1] = system: cells in the peripheral blood; assay: In vivo reconstitution after Alkeran, absolute cell numbers in peripheral blood; design: species or system NMRI mice; details: after 21 days, average of three mice
Experimental: (§1) In the next experiment NMRI mice were treated with Alkeran, a cytotoxic drug regularly used for human cancer therapy. Alkeran was given i.p. on days 1, 3 and 5. Mice received 100 μg of CD137-Fc immobilized on protein A or equivalent amounts of immobilized Fc control protein. Three mice were used per group. The relative composition of the bone marrow cells (Table 3) and the absolute number of cells in the peripheral blood (Table 4) were determined after 21 days.

Bone marrow cells = assay: In vivo reconstitution after Alkeran, bone marrow composition; design: species or system NMRI mice; details: Alkeran experiment, day 21, average of three mice
Experimental: as §1

[2] = system: megakaryocyte lineage, human CD34+ progenitors; assay: CELISA lineage assay, megakaryocyte lineage (CD41a); assay type: cell-based; details: growth factors present
Experimental: (§2) The effects of CD137 on the different hematopoietic lineages were evaluated using a cell based immunoassay, which quantifies expression of lineage-specific markers (CELISA, BioWhittaker, Walkersville, Md., USA).
(§3) Progenitors for the myeloid and erythroid lineages were normal human CD34+ cells, which had been isolated from the bone marrow of healthy volunteers by positive selection using the “Direct CD34 Progenitor Kit” (Miltenyi, Bergisch Gladbach, Germany). Progenitors for the megakaryocyte lineage were normal human CD34+ cells, which had been isolated from the peripheral blood of healthy G-CSF-treated volunteers.
(§4) 96-well polystyrene plates were precoated with four dilutions of CD137-Fc or Fc control protein at 4° C. overnight or with the dilution buffer PBS. The following additional controls were included in the experiment: no addition; Camptothecin, a cytotoxic compound, at 0.005 μM (condition 1) and at 0.5 μM (condition 2); stem Cell Factor (SCF) at a concentration of 125 ng/ml. […]

[3] = system: myeloid lineage, human CD34+ progenitors; assay: CELISA lineage assay, myeloid lineage (CD11b); assay type: cell-based; details: growth factors present
Experimental: as §2, §3
96-well polystyrene plates were precoated with four dilutions of CD137-Fc or Fc control protein at 4° C. overnight or with the dilution buffer PBS. […]
In this example, the influence of growth factor concentrations and potential additive or synergistic effects of these growth factors with CD137 were analysed in more detail. […]
Differentiation was assessed per CELISA (BioWhittaker), measuring the expression of the myeloid-specific protein CD11b. Proliferation was determined using the ViaLight system (BioWhittaker), which measures the amount of ATP in the culture. […]

[4] = system: erythroid lineage, human CD34+ progenitors; assay: CELISA lineage assay, erythroid lineage (glycophorin A); assay type: cell-based; details: growth factors present
Experimental: as §2, §3, §4

[5] = system: bone marrow cell population; assay: In vivo reconstitution of the hematopoietic system, protein A damage, bone marrow composition; design: species or system NMRI mice; details: day 21, average of three mice
Source text: CD137 needs to be immobilized onto a carrier or crosslinked to be functional according to the invention. Protein A was chosen as a carrier for in vivo studies, as it has been effective in crosslinking CD137-Fc in the experiment described in Example 3. CD137-Fc or Fc control protein were immobilized on protein A and injected into NMRI mice. Besides immobilizing CD137-Fe or Fc, protein A has the additional effect of being toxic for cells of the hematopoietic system. This latter activity of protein A exerts a damaging effect on the hematopoietic system of mice as does chemotherapy.
Three mice per group were used. Each mouse received 100 μg of immobilized CD137-Fc or an equimolar amount of immobilized Fc or protein A alone. Mice were killed after 3 weeks and the bone marrow was isolated from the femurs and analysed (Table 2).

## N[C@@H](Cc1ccc(N(CCCl)CCCl)cc1)C(=O)O [Alkeran]
[1]
  Total number of leukocytes in the peripheral blood: 830 per μl
  Total number of thrombocytes in the peripheral blood: 581.000 per μl
Bone marrow cells
  R1: 60.21 Percentage of total cells
  R3: 0.66 Percentage of total cells
  R4: 2.28 Percentage of total cells

## CC[C@@]1(O)C(=O)OCc2c1cc1n(c2=O)Cc2cc3ccccc3nc2-1 [Camptothecin]
[2]; 0.005 uM
  growth inhibition, megakaryocyte lineage: minimal growth inhibition
[2]; 0.05 uM
  growth inhibition, megakaryocyte lineage: inhibited growth to a greater extent
[3]; 0.005 uM
  growth inhibition, myeloid lineage: minimal growth inhibition
[3]; 0.05 uM
  growth inhibition, myeloid lineage: inhibited growth to a greater extent
[4]; 0.005 uM
  growth inhibition, erythroid lineage: minimal growth inhibition
[4]; 0.05 uM
  growth inhibition, erythroid lineage: inhibited growth to a greater extent

## Protein A: carrier for crosslinking CD137-Fc; toxic for cells of the hematopoietic system
[5]
  R1 (91% erythroid): 69.18 Percentage of total cells
  R3 (49% undifferentiated blasts, 25% lymphoblasts, 18% basophil erythroblasts): 1.81 Percentage of total cells
  R4 (50% undifferentiated blasts, 30% myeloid mainly und. precursors, 20% erythroid): 1.97 Percentage of total cells
  R5 (91% granulocytes): 1.12 Percentage of total cells
  R6 (74% monocytes, 20% myeloid precursors): 0.63 Percentage of total cells
[5]; listed as protein A
  R5 (91% granulocytes): reduced drastically
  R6 (74% monocytes, 20% myeloid precursors): reduced drastically
